# Like-named read-outs stand apart in the source and are kept apart here. Where a SMILES comes first, the peptide text is derived from it.
# Tests used:
# [1] = Serum stability (RP-HPLC AUC of intact peptide); format: in vitro ADME
# Experimental: Serum stability. Human serum (250 μL) was thawed to room temperature and was added to DMEM media (650 μL). The mixture was kept in a 37° C. incubator to mimic human body temperature for 15 min. The peptide (100 μL, 1 mM) was dissolved (dispersed) in sterile water. The peptide solution was added to the pre-warmed human serum and DMEM mixture. The mixture was incubated at 37° C. At different time points (0, 0.5, 1, 5, and 24 h) aliquots (100 μL) were removed and added to methanol (200 μL). Each time point sample was kept at 4° C. for 5 min and then was centrifuged at 500×g for 15 min to separate serum proteins. The supernatant was injected into the RP-HPLC, and the major peaks were collected. The peak's mass was determined using MALDI-TOF mass analysis. The serum stabilities of the D-aa KK-11 were determined by comparing the HPLC peaks (AUC) for the intact peptides at different time points.
# For in vivo studies, peptide KK-11 was labeled with a fluorescent Vivotag 680 XL in the N-terminus (Scheme 1). In addition, two amino acids in the sequence (norleucine and arginine) were substituted with D-amino acids to increase proteolytic stability. These amino acids were identified as proteolytically labile sites. The D-aa KK-11 peptide was assembled on acid-labile Rink amide resin and was characterized. The proteolytic stability of the D-aa KK-11 peptide was evaluated by incubating with human serum. The presence of the intact peptide after incubation with human serum for different time periods was detected using RP-HPLC and confirmed by MALDI-TOF mass analysis. […] However, peptide KK-11 with all L-amino acids reduced to an undetectable level within 30 min (data not shown). For conjugating VivoTag 680 XL dye, the peptide was modified by incorporating a β-alanine moiety generating the precursor Aβ-KK-11. The structure and mass of Aβ-KK-11 were confirmed by NMR (^1H and ^13C) and MALDI-TOF [M+H]^+ 1588.5 Da. Next, the β-alanine terminal amino group was allowed to react with the succinimidyl ester group of the reactive fluorophore (VivoTag 680 XL) under basic conditions in polar aprotic solvent, generating the fluorescently labeled peptide with extrusion of N-hydroxysuccinimide (NHS) (Scheme 1). The mass of the fluorescence-labeled VivoTag-Aβ-KK-11 was confirmed by MALDI-TOF, showing a peak at 2823.4 Da, corresponding to [M+H]^+.
# [2] = test system: human melanoma A375 tumor xenografts and organs; assay: In vivo and ex vivo imaging of biodistribution in mice bearing A375 xenografts; parameters: species or system athymic nude mice; settings: ex vivo imaging
# Experimental: FIG. 4A and FIG. 4B-1 and FIG. 4B-2 show in vivo and ex vivo organ distribution images of VivoTag 680 XL-labeled D-aa KK-11 in athymic nude mice bearing human melanoma A375 tumors. Saline or VivoTag-KK-11 in a dose of 8 μg per mouse was injected into the mice via the tail vein (n=2 for each time point).
# The top panels represent the scanned images of the tumor section area in coronal views. The bottom-row pictures display the fluorescence image in trans-axial views: arrows point to the spine, and circles mark the xenograft tumors.
# Organs including tumor xenografts (T), liver (L), spleen (S), heart and lungs (H+L), kidneys (K), and brain (B) were excised and imaged using the IVIS Spectrum imaging system. Representative fluorescence images of different organs show peptide distribution at different time points as indicated.
# Ex vivo and in vivo imaging. The study was carried out in compliance with Animal Research: Reporting of In Vivo Experiments (ARRIVE) guidelines. All the animal procedures were approved by the Institutional Animal Care and Use Committee (IACUC) at Chapman University and conducted in compliance with the policies of Chapman University, and federal, state, and local animal welfare authorities. Male and female athymic nude mice (4-6 weeks old) were kept (5 in each cage) in a pathogen-free environment. Approximately 10^6 human melanoma A375 cells (0.1 mL in normal saline), mixed with 0.1 mL cold Matrigel (#354248; Corning, Corning, NY), were injected subcutaneously in the flank. The tumor size was measured with a caliper, and body weight was recorded once a week. When the tumor size reached approximately 800-1000 mm^3 as calculated using the following formula: [Length×(Width^2)]/2 (in mm), mice were processed for in vivo or ex vivo imaging.
# For in vivo imaging, normal saline or VivoTag-KK-11 at a dose of 8 μg per mouse was injected into the mice via the tail vein (n=2 for each time point). The animals were then scanned at different time intervals (0.5, 2, 6, and 24 h) using an IVIS Spectrum in vivo imaging system (PerkinElmer, Waltham, MA). The mice were imaged for 0.5 sec, 10 bin, level B at an emission wavelength of 688±5 nm. Imaging was limited to no more than once a day and was conducted under continuously maintained isoflurane. Mice were maintained on alfalfa-free diets to minimize the background fluorescence. All the study animals survived through the in vivo imaging procedure.
# For ex vivo imaging at defined time intervals (5, 15, 30 min, followed by 1, 1.5, 2, 3, 4, 6, 24, and 48 h) following fluorescence conjugate injection, animals were euthanized via carbon dioxide inhalation (n=2 for each time point); tumor, liver, spleen, heart, lungs, brain, and kidneys were collected and briefly rinsed with saline. The organs were then imaged for 0.5 sec, 10 bin, level B at an emission wavelength of 688±5 nm using an IVIS Spectrum imaging system.
# [3] = test system: human melanoma cell lines (A375, Sk-mel-28, wm115) compared to normal human HEK-293 cells; assay: Peptide array-whole cell binding assay (CyQUANT fluorescence); format: cell-based; settings: average fluorescent intensity of melanoma cells (A375, Sk-mel-28, wm115) bound to peptide divided by that of HEK-293 cells bound to same peptide
# Text: Peptide array synthesis. Fifty-three peptide sequences were synthesized in duplicate on derivatized cellulose membrane (Intavis, Germany) using a ResPep SL Autospot robot. The detailed method was explained previously (Ahmed et al. Anal Chem. 82:7533-7541, 2010; Hossein-Nejad-Ariani et al. Sci Rep. 9:2723, 2019). Briefly, the sequences of peptides were entered in the robot software, and 384 spot synthesis mode was selected for this library. First, the membrane was dipped in DMF for an hour followed by transfer and support to the holder of the robot on filter paper. Then the membrane was washed with ethanol and subjected to a vacuum to remove any bubbles under the membrane. The Fmoc strategy was used for peptide synthesis. DIC and Oxyma pure were used as coupling reagent and racemization suppressor, respectively. After each coupling, capping of unreacted amino acids was done using acetic anhydride (3%), followed by 20% piperidine for Fmoc deprotection. The C-terminal end of all peptides were bound to the membrane. Following the synthesis, the membrane was dipped in deprotection solution containing 15 mL TFA, 15 mL DCM, 900 μL TIPS, and 600 μL water, and kept for 3 h at room temperature. Next, membranes were thoroughly washed with DCM, DMF, and ethanol. Finally, they were air dried and kept in a sealed bag at −20° C. until use.
# Peptide array cell binding assay. The sequential steps of the assay are as described in a previous publication (Ahmed et al. 2010; Soudy et al. J Med Chem. 54:7523-7534, 2011). The membrane was dipped in ethanol for 30 sec to remove any precipitation of hydrophobic peptides. Then the membrane was dipped in sterile PBS at pH 7.4 for 30 min. The cells (75×10^3 cells/mL) were seeded directly on the membrane in a sterile plate and incubated at 37° C. for 4 h. After washing off the unbound cells with sterile PBS, pH 7.4, the membrane was frozen at −80° C. for 2 h. Subsequently, it was defrosted at room temperature and incubated in CyQUANT solution at 37° C. for 30 min following the manufacturer's protocol. The membrane was then washed with sterile PBS and air-dried.
# Membranes were scanned using the ChemiDoc™ XRS+system (Bio-Rad) to analyze the fluorescence intensity of each spot. The setting was adjusted based on the excitation and emission wavelength of the CyQUANT dye at 465 nm and 535 nm, respectively. The fluorescence intensity (FI) was normalized by the FI of non-cancerous HEK-293 cells.
# A library of 53 peptides was synthesized in an array format on a cellulose membrane using SPOT synthesis (Table 1). The peptide library was designed starting with five lead cancer cell targeting peptides, Arg peptide (1, Table 1), p160 analogue (11), RGD (16), GE11 (20), and LSD (37). Conservative substitutions, deletion from the N- or C-terminus, alanine scan, and scrambling of amino acids were used to design the analogues for the library. The peptides were screened for specific binding to three human melanoma cell lines. The cells were incubated with the cellulose membranes with conjugated peptides followed by incubation with CyQUANT fluorescence dye. A brief schematic for the peptide array-whole cell binding assay for screening peptides with high affinity for melanoma cells is shown in FIG. 2A. The relative cell adhesion capacities of the peptides to A375 (FIG. 2B), Sk-mel-28 (FIG. 2C), and wm115 were estimated based on the fluorescence of the bound melanoma cells compared to normal human HEK-293 cells.
# [4] = test system: human melanoma cells (wm3211, Sk-mel-28, A375); assay: In vitro cellular uptake of FITC-labeled peptides by flow cytometry (FACS); format: cell-based; settings: 0.5 and 1 μM
# Experimental: (§1) The bar represents the average fluorescence density of three cell lines (A375, Sk-mel-28, and wm3211 cells) detected by fluorescence-activated cell sorting (FACS) analysis. The cells were incubated with FITC-labeled peptide for […] at 37° C. (0.5 μM, grey bar; 1 μM, dark bar). The control is cells incubated with FITC alone. […] Cells were either treated with DOX or co-treated with DOX and KK-11 (1 μM) for 72 h (KK-11+DOX) or pretreated with KK-11 for 4 h, then washed away following a DOX 72 h treatment (KK-11 to DOX). Control is DMSO or KK-11 alone. Cell viability was detected by a MTT colorimetric assay. Statistical analysis was performed with a student's t-test, and error bars denote mean±SD; **, p<0.01; ***, p<0.001 compared to DOX alone. […] Cells were treated with MAC-3-190 at various concentrations with or without 1 μM KK-11 for 72 h. Cell viability was detected by MTT assay. The assays were repeated independently at least three times.
# In vitro cellular uptake analysis. The peptide (FITC-labeled) concentration was determined using a Shimadzu BioSpec-nano Micro-volume UV-Vis spectrophotometer (Shimadzu). Human melanoma cells (wm3211, Sk-mel-28, and A375) were incubated with FITC or FITC-labeled peptides at final concentrations of 0.5 μM and 1 μM for 2 h. […] The mean fluorescence density of 10,000 cells was analyzed and compared to that of control cells.
# [5] = test system: A375 human melanoma xenograft; assay: In vivo xenograft melanoma mouse model
# Experimental: FIG. 5A; the tumors were measured three times a week using digital Vernier calipers. Tumor volume (mm^3) was calculated as [Length×(Width^2)/2. […] FIG. 5C; the body weights of the mice were measured after 21 days of treatment. Statistical analysis was performed with student's t-test and error bars denote mean±SD: *, p<0.05 compared to control group.
# In vivo xenograft melanoma mouse model. Nude mice (Nu/Nu) were purchased from Charles River (Wilmington, MA) and were housed and maintained in the Chapman University vivarium under pathogen-free conditions. A375 cells were suspended in cold Matrigel and injected subcutaneously into the flank of each mouse (1×10^6 cells per mouse) to establish tumors. […] For the co-treatment, the solution of D-aa KK-11 and MAC-3-190 (1:11 molar ratio) was mixed gently and incubated at room temperature for 30 min before injection via tail vein. The growth of the tumors was monitored three times a week and measured using digital Vernier calipers. The tumor volume (mm^3) was calculated as [Length×(Width^2)]/2 (in mm). The mice were sacrificed after 21 days per IACUC policy when the control group's average tumor size reached 2,000 mm^3. Tumor xenografts were removed and weighed.
# [6] = test system: human primary glioma U87 cells; assay: Binding to glioma cells (data not shown); format: cell-based
# [7] = test system: A375 melanoma cells; assay: In vitro cytotoxicity detected by MTT colorimetric assay; format: cell-based, human
# Experimental: as §1
# In vitro cytotoxicity detected by MTT colorimetric assay. Cells were seeded in a 96-well plate and allowed to adhere overnight prior to adding the compound. After 72 h of treatment in serum-free media, an MTT solution was added to each well to give a final concentration of 0.5 mg/mL and was incubated for 3 h. Formed crystals were solubilized, and the absorbance was measured at 595 nm.
molecule,measurement,setting,value
"CCCC[C@@H](NC(=O)[C@H](Cc1c[nH]c2ccccc12)NC(=O)[C@@H]1CCCN1C(=O)[C@@H](N)C(C)C)C(=O)N[C@@H](CCC(=O)O)C(=O)N1CCC[C@H]1C(=O)N[C@@H](C)C(=O)N[C@@H](Cc1ccc(O)cc1)C(=O)N[C@@H](CCC(N)=O)C(=O)N[C@H](CCCNC(=N)N)C(=O)N[C@@H](Cc1ccccc1)C(=O)N[C@@H](CC(C)C)C(N)=O [D-aa KK-11, VPWxEPAYQrFL] (HELM PEPTIDE1{V.P.W.[CCCC[C@@H](N[*:1])C(=O)[*:2]].E.P.A.Y.Q.[dR].F.L.[am]}$$$$V2.0; N-terminus assumed)","remaining at 5 h, 100 µM","[1]; human serum (25% v/v in DMEM), 37° C., 5 h, read-out: area under the curve of the peptide peak, of control (t=0 h)",97.4%
same,"remaining at 24 h, 100 µM","[1]; human serum (25% v/v in DMEM), 37° C., 24 h, read-out: area under the curve of the peptide peak / peptide remaining, of control (t=0 h)",45.3%
same,"area under the curve of the peptide peak / peptide remaining, of control (t=0 h)","[1]; human serum, 37° C., 24 h",45.3%
same,time at which fluorescence is evident in tumor xenografts,"[2]; 8 μg per mouse, tail vein",≤ 5 min
same,time fluorescence remained detectable in tumor xenografts,[2]; single tail vein injection,up to 24 h
"GRRPRPRPRP [Peptide 1, FITC-labeled (β-alanine spacer) in the uptake study]",Fluorescence Ratio,[3],1.82
same,uptake by melanoma cells (in words),[4],significantly increased uptake
"VPWXEPAYQRFL [Peptide 11, X stands for norleucine]",toxicity of peptide alone in vivo,[5],No cytotoxicity
same,binding to U87 cells,[6],can also bind
same,Fluorescence Ratio,[3],1.80
same,time until reduced to an undetectable level,"[1]; human serum, data not shown",≤ 30 min
same,cytotoxicity of peptide alone,[7]; in vitro,No cytotoxicity
"COc1cccc2c1C(=O)c1c(O)c3c(c(O)c1C2=O)C[C@@](O)(C(=O)CO)C[C@@H]3O[C@H]1C[C@H](N)[C@H](O)[C@H](C)O1 [DOX, doxorubicin]",viability at 0.5 µM,"[7]; Homo sapiens, A-375, 72 h, DOX 0.5 μM alone, 72 h, A375, read-out: cell viability, of control",62%
same,viability at 1 µM,"[7]; Homo sapiens, A-375, 72 h, DOX 0.5 μM co-treatment with KK-11 (1 μM), 72 h, A375, read-out: cell viability, of control",40%
same,viability at 1 µM,"[7]; Homo sapiens, A-375, 72 h, DOX 1 μM alone, 72 h, A375, read-out: cell viability (cells survived)",24%
same,viability at 1 µM,"[7]; Homo sapiens, A-375, 72 h, DOX 1 μM in combination with KK-11 (1 μM), 72 h, A375, read-out: cell viability, of control",14%
same,change of DOX cytotoxicity,"[7]; KK-11 and DOX sequentially (KK-11 pretreatment 4 h, washed, then DOX 72 h)",failed to produce any changes on DOX cytotoxicity

# — patent publication US20240059739A1, “PEPTIDES FOR INCREASING DRUG DELIVERY TO CANCER” (Chapman University, priority 2022, published 2024)
